Consider twelve molecules from patent US7880007B2, “Bicyclic substituted phenyl piperidine modulators of muscarinic receptors” (Vertex Pharmaceuticals Incorporated, priority 2004, dated 2011).

Holding throughout (format): cell-based
For assay [1], the target named is T1, M3 muscarinic receptor (Homo sapiens, UniProt P20309).
T1 construct: expressed in transfected cells; host or cells: CHO (M3-CHO)
Kind of assay: Functional mobilization of intracellular calcium (FLIPR), M3-CHO cells. As to conditions: for Emax: 100% efficacy = maximum response obtained with the Carbachol control; for M3 Activity: M3-CHO cells, calcium mobilization (FLIPR). The method, boiled down:
(§1)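 Calcium mobilisation read by FLIPR over 60 s (ex 488/em 540 nm) in recombinant muscarinic CHO lines loaded with calcium dye plus 1 mM probenecid. Compounds tested as agonists alone, or as inhibitors against EC80 carbachol after 15 min pre-incubation or co-addition; 0.5% DMSO; efficacy scaled to carbachol maximal response.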

The target in assay [2] is T2, M1 muscarinic receptor (Homo sapiens, UniProt P11229).
T2 construct: expressed in transfected cells; host or cells: CHO (M1-CHO)
T2 sequence (P11229 1-460): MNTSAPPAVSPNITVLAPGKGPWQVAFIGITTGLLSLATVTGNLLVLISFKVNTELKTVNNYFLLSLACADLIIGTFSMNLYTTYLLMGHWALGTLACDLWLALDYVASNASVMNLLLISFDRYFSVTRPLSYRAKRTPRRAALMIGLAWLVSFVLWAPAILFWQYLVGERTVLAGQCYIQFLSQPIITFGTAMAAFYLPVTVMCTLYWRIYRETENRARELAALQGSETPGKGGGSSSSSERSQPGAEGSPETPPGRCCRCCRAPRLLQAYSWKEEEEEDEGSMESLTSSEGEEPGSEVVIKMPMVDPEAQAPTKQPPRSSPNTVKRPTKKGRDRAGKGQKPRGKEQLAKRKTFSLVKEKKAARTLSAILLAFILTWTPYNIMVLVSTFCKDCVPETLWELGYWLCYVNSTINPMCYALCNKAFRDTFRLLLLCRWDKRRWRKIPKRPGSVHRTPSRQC
Kind of assay: Functional mobilization of intracellular calcium (FLIPR), M1-CHO cells. As to conditions: for Emax: 100% efficacy = maximum response obtained with the Carbachol control; for M1 Activity: M1-CHO cells, calcium mobilization (FLIPR). The method, boiled down:
as §1

Assay [3] concerns the target T3, M4 muscarinic receptor (Homo sapiens, UniProt P08173).
T3 construct: expressed in transfected cells; host or cells: CHO (M4-CHO)
T3 sequence (P08173 1-479): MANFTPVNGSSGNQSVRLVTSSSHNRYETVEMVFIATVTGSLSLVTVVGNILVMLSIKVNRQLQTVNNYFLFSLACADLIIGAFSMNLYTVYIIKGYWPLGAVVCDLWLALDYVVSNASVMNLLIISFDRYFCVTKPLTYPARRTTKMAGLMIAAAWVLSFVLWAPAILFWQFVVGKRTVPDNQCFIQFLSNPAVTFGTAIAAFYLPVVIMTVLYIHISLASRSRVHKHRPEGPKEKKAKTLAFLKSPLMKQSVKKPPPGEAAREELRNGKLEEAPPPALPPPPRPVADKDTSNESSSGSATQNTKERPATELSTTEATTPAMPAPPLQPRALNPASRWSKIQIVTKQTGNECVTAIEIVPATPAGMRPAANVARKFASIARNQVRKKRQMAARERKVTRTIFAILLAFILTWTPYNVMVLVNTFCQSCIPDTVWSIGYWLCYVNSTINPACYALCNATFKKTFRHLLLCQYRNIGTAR
Kind of assay: Functional mobilization of intracellular calcium (FLIPR), M4-CHO cells. As to conditions: for Emax: 100% efficacy = maximum response obtained with the Carbachol control; for M4 Activity: M4-CHO cells, calcium mobilization (FLIPR). The method, boiled down:
as §1
(In general: Calcium assays in cells follow changes in intracellular calcium, usually with a dye or a luminescent sensor.)

Assay [4] deals with T4, M2 muscarinic receptor (Homo sapiens, UniProt P08172).
T4 construct: expressed in transfected cells; host or cells: CHO (M2-CHO)
T4 sequence (P08172 1-466): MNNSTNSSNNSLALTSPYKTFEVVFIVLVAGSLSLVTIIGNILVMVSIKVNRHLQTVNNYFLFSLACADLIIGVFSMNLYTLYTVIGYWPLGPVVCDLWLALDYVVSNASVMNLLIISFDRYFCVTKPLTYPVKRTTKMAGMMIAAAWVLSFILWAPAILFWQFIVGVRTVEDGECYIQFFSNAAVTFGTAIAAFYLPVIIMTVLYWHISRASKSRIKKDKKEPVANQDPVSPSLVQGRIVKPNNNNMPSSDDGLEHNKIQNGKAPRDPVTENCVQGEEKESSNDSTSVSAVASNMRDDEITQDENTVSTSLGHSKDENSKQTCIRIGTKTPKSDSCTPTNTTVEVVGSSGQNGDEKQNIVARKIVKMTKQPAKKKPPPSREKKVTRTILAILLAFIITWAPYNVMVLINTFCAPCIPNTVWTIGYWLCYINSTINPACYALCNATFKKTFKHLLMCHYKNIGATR
Kind of assay: Functional mobilization of intracellular calcium (FLIPR), M2-CHO cells. As to conditions: for Emax: 100% efficacy = maximum response obtained with the Carbachol control; for M2 Activity: M2-CHO cells, calcium mobilization (FLIPR). The method, boiled down:
as §1

What is called Emax is the size of the effect at its maximum, as opposed to the concentration needed.

T1 sequence (P20309 whole entry): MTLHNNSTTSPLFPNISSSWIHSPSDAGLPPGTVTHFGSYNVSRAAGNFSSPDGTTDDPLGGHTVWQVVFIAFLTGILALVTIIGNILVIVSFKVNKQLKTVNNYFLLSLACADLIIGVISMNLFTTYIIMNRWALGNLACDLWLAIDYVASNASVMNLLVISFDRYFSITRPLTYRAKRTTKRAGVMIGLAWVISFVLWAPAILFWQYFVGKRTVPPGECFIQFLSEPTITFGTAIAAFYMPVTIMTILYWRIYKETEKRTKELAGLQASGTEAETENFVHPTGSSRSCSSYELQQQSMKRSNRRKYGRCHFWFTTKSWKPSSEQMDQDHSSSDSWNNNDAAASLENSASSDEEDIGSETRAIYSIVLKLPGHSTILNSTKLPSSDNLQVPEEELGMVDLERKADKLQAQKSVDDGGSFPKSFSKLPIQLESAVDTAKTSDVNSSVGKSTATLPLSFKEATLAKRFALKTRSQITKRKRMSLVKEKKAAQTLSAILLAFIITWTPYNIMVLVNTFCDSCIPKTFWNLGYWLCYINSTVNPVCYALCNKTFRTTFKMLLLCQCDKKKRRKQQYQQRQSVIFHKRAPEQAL

Regarding `COc1ccc(C(=O)COc2ccccc2C2CCN([C@H]3C[C@H]4CC[C@H]3C4)CC2)cc1` [Compound 57], in assay [1], the maximal effect (Emax) is less than 25% and the “M3 Activity” value is given as “+ (activity was measured to be greater than 5.0 μM)”. In assay [2], the Emax was in the range of 25 to 100% and the “M1 Activity” value is recorded as “++ (activity was measured to be from 1.0 μM to 5.0 μM)”. In assay [3], the Emax lay in the range of 25 to 100% and the “M4 Activity” value was “++ (activity was measured to be from 1.0 μM to 5.0 μM)”. Besides, in assay [4], the Emax was in the range of 25 to 100% and the “M2 Activity” value was “++ (activity was measured to be from 1.0 μM to 5.0 μM)”.
Turning to `COc1ccc(F)cc1C1(F)CCN(C2CCCCC2)CC1` [Compound 59], in assay [1], the Emax was less than 25% and the “M3 Activity” value was “+ (activity was measured to be greater than 5.0 μM)”. Further, in assay [2], the maximal effect (Emax) lay within 25 to 100% and the “M1 Activity” value was “+ (activity was measured to be greater than 5.0 μM)”. Also, in assay [3], the Emax lay in the range of 25 to 100% and the “M4 Activity” value is recorded as “++ (activity was measured to be from 1.0 μM to 5.0 μM)”. Besides, in assay [4], the Emax was less than 25% and the “M2 Activity” value is listed as “+ (activity was measured to be greater than 5.0 μM)”.
For the molecule `COc1ccc(F)cc1C1(O)CCN(C[C@@H]2C[C@H]3C=C[C@H]2C3)CC1` [Compound 60], in assay [1], the Emax is less than 25% and the “M3 Activity” value is reported as “+ (activity was measured to be greater than 5.0 μM)”. Moreover, in assay [2], the Emax was less than 25% and the “M1 Activity” value is on record as “+ (activity was measured to be greater than 5.0 μM)”. Moreover, in assay [3], the Emax was 25 to 100% and the “M4 Activity” value is “++ (activity was measured to be from 1.0 μM to 5.0 μM)”. Besides, in assay [4], the Emax is less than 25% and the “M2 Activity” value is listed as “+ (activity was measured to be greater than 5.0 μM)”.
Turning to `Cc1ccc(C)c(C2(O)CCN(CC3CC4C=CC3C4)CC2)c1` (centres unmarked) [Compound 62, 1-((bicyclo[2.2.1]hept-5-en-2-yl)methyl)-4-(2,5-dimethylphenyl)piperidin-4-ol], the “M3 Activity” value in assay [1] is on record as “+ (activity was measured to be greater than 5.0 μM)”. In addition, in assay [2], the Emax fell in the range of 25 to 100% and the “M1 Activity” value is “++ (activity was measured to be from 1.0 μM to 5.0 μM)”. For the same molecule, in assay [3], the Emax lay within 25 to 100% and the “M4 Activity” value is on record as “++ (activity was measured to be from 1.0 μM to 5.0 μM)”. In assay [4], the Emax was less than 25% and the “M2 Activity” value is recorded as “+ (activity was measured to be greater than 5.0 μM)”.
As for `CCOC(=O)N1CCC(CN2CCC(c3cc(F)cc(F)c3OC)CC2)CC1` [Compound 65], in assay [1], the Emax is less than 25% and the “M3 Activity” value is given as “+ (activity was measured to be greater than 5.0 μM)”. In assay [2], the Emax was in the range of 25 to 100% and the “M1 Activity” value is recorded as “+++ (activity was measured to be less than 1.0 μM)”. In addition, in assay [3], the maximal response (Emax) fell in the range of 25 to 100% and the “M4 Activity” value is “+++ (activity was measured to be less than 1.0 μM)”. Moreover, in assay [4], the maximal response (Emax) was less than 25% and the “M2 Activity” value is given as “+ (activity was measured to be greater than 5.0 μM)”.
Consider `COc1ccccc1C1CCN(C2CCCS(=O)(=O)CC2)CC1` (centres unmarked) [Compound 66], for which, in assay [1], the Emax is less than 25% and the “M3 Activity” value is listed as “+ (activity was measured to be greater than 5.0 μM)”. Besides, in assay [2], the Emax fell in the range of 25 to 100% and the “M1 Activity” value is listed as “+ (activity was measured to be greater than 5.0 μM)”. Also, in assay [3], the Emax is 25 to 100% and the “M4 Activity” value is listed as “++ (activity was measured to be from 1.0 μM to 5.0 μM)”. In assay [4], the Emax was less than 25% and the “M2 Activity” value is recorded as “+ (activity was measured to be greater than 5.0 μM)”.
As for `COc1ccc(-c2ccccc2C)cc1C1CCN([C@@H]2C[C@H]3CC[C@H]2C3)CC1` [Compound 67], in assay [1], the Emax was less than 25% and the “M3 Activity” value was “+ (activity was measured to be greater than 5.0 μM)”. In assay [2], the maximum response (Emax) was less than 25% and the “M1 Activity” value is given as “+ (activity was measured to be greater than 5.0 μM)”. Further, in assay [3], the Emax lay in the range of 25 to 100% and the “M4 Activity” value is “+ (activity was measured to be greater than 5.0 μM)”. For the same molecule, in assay [4], the Emax was less than 25% and the “M2 Activity” value is on record as “+ (activity was measured to be greater than 5.0 μM)”.
As for `CCOc1ccccc1C1CCN([C@H]2C[C@H]3CC[C@H]2C3)CC1` [Compound 68], in assay [1], the Emax was less than 25% and the “M3 Activity” value is recorded as “+ (activity was measured to be greater than 5.0 μM)”. In assay [2], the Emax lay in the range of 25 to 100% and the “M1 Activity” value was “++ (activity was measured to be from 1.0 μM to 5.0 μM)”. Further, in assay [3], the Emax lay in the range of 25 to 100% and the “M4 Activity” value is “+++ (activity was measured to be less than 1.0 μM)”. Besides, in assay [4], the Emax was less than 25% and the “M2 Activity” value is given as “+ (activity was measured to be greater than 5.0 μM)”.
For `COc1cccc(-c2ccc(OC)c(C3CCN([C@@H]4C[C@H]5CC[C@H]4C5)CC3)c2)c1` [Compound 69], in assay [1], the Emax is less than 25% and the “M3 Activity” value is “+ (activity was measured to be greater than 5.0 μM)”. Also, in assay [2], the maximal effect (Emax) was less than 25% and the “M1 Activity” value is “+ (activity was measured to be greater than 5.0 μM)”. Also, in assay [3], the Emax fell in the range of 25 to 100% and the “M4 Activity” value was “+ (activity was measured to be greater than 5.0 μM)”. Further, in assay [4], the Emax was less than 25% and the “M2 Activity” value is reported as “+ (activity was measured to be greater than 5.0 μM)”.
Regarding `FC(F)(F)Oc1ccccc1C1CCN(C2CCOCC2)CC1` [Compound 70], in assay [1], the Emax is less than 25% and the “M3 Activity” value is “+ (activity was measured to be greater than 5.0 μM)”. Besides, in assay [2], the Emax was 25 to 100% and the “M1 Activity” value is listed as “+ (activity was measured to be greater than 5.0 μM)”. In assay [3], the Emax lay in the range of 25 to 100% and the “M4 Activity” value is given as “++ (activity was measured to be from 1.0 μM to 5.0 μM)”. In addition, in assay [4], the Emax was less than 25% and the “M2 Activity” value was “+ (activity was measured to be greater than 5.0 μM)”.
`COc1ccccc1C1CCN(C2CCN(C(=O)c3ccccc3)CC2)CC1` [Compound 71]: in assay [1], the Emax was less than 25% and the “M3 Activity” value was “+ (activity was measured to be greater than 5.0 μM)”. Besides, in assay [2], the Emax is less than 25% and the “M1 Activity” value is “+ (activity was measured to be greater than 5.0 μM)”. In assay [3], the Emax was less than 25% and the “M4 Activity” value is given as “+ (activity was measured to be greater than 5.0 μM)”. Also, in assay [4], the Emax was less than 25% and the “M2 Activity” value is reported as “+ (activity was measured to be greater than 5.0 μM)”.
As for `Cc1ccc(F)cc1C1CCN(C2C[C@H]3CC[C@H]2C3)CC1` (some centres unmarked) [Compound 73], in assay [1], the Emax is less than 25% and the “M3 Activity” value is recorded as “+ (activity was measured to be greater than 5.0 μM)”. Moreover, in assay [2], the Emax lay in the range of 25 to 100% and the “M1 Activity” value is recorded as “++ (activity was measured to be from 1.0 μM to 5.0 μM)”. In assay [3], the Emax fell in the range of 25 to 100% and the “M4 Activity” value is listed as “+++ (activity was measured to be less than 1.0 μM)”. For the same molecule, in assay [4], the Emax lay within 25 to 100% and the “M2 Activity” value is listed as “++ (activity was measured to be from 1.0 μM to 5.0 μM)”.
